Measured values published in ChEMBL document CHEMBL4041531, “Design, synthesis, and biological evaluation of novel 1-oxo-1,2,3,4-tetrahydropyrazino[1,2-a]indole-3-carboxamide analogs in MCF-7 and MDA-MB-468 breast cancer cell lines” (2017).
The source made the active and inactive calls. The calls are words filed in the database; no cut-off is given here.

Key:
[1] = system: MDA-MB-468; experiment: Cytotoxicity against gefitinib-resistant human MDA-MB-468 cells assessed as cell viability at 30 uM after 48 hrs by MTT assay relative to control; assay type: functional; details: MDA-MB-468, 48 h, read-out: Activity
[2] = system: MCF7; experiment: Cytotoxicity against human MCF7 cells assessed as cell viability at 30 uM after 48 hrs by MTT assay relative to control; assay type: functional; details: MCF7, 48 h, read-out: Activity
[3] = system: MDA-MB-468; experiment: Cytotoxicity against gefitinib-resistant human MDA-MB-468 cells assessed as reduction in cell viability after 48 hrs by MTT assay; assay type: functional; details: MDA-MB-468, 48 h
[4] = system: MCF7; experiment: Cytotoxicity against human MCF7 cells assessed as cell viability at 10 uM after 48 hrs by MTT assay relative to control; assay type: functional; details: MCF7, 48 h, read-out: Activity
[5] = system: MDA-MB-468; experiment: Cytotoxicity against gefitinib-resistant human MDA-MB-468 cells assessed as cell viability at 10 uM after 48 hrs by MTT assay relative to control; assay type: functional; details: MDA-MB-468, 48 h, read-out: Activity
[6] = system: MCF7; experiment: Potency index, ratio of gefitinib GI50 to compound GI50 for human MCF7 cells; assay type: functional
[7] = system: MDA-MB-468; details: Homo sapiens, at 10 µM
Description: Inhibition of EGFR in gefitinib-resistant human MDA-MB-468 cells assessed as reduction in Akt phosphorylation at 10 uM after 6 hrs by Western blot method

[8] = system: MCF7; experiment: Cytotoxicity against human MCF7 cells assessed as reduction in cell viability after 48 hrs by MTT assay; assay type: functional; details: MCF7, 48 h
[9] = system: MDA-MB-468; details: Homo sapiens, at 10 µM; remark: listed apart in the source
Description: Inhibition of EGFR in gefitinib-resistant human MDA-MB-468 cells assessed as reduction in Akt phosphorylation at 10 uM after 18 hrs by Western blot method

[10] = system: MDA-MB-468; experiment: Cytotoxicity against gefitinib-resistant human MDA-MB-468 cells assessed as cell viability at 3 uM after 48 hrs in presence of 10 uM gefitinib by MTT assay relative to control; assay type: functional
[11] = system: MDA-MB-468; experiment: Cytotoxicity against gefitinib-resistant human MDA-MB-468 cells assessed as cell viability at 10 uM after 48 hrs in presence of 10 uM gefitinib by MTT assay relative to control; assay type: functional; details: MDA-MB-468, 48 h, read-out: Activity
[12] = system: MDA-MB-468; experiment: Cytotoxicity against gefitinib-resistant human MDA-MB-468 cells assessed as cell viability at 1 uM after 48 hrs in presence of 10 uM gefitinib by MTT assay relative to control; assay type: functional
[13] = system: MDA-MB-468; experiment: Cytotoxicity against gefitinib-resistant human MDA-MB-468 cells assessed as cell viability at 10 uM after 48 hrs in presence of 1 uM gefitinib by MTT assay relative to control; assay type: functional
[14] = system: MCF7; experiment: Cytotoxicity against human MCF7 cells assessed as reduction in cell viability at 1 uM after 48 hrs in presence of 1 to 10 uM gefitinib by MTT assay; assay type: functional, cell-based
[15] = system: MDA-MB-468; experiment: Cytotoxicity against gefitinib-resistant human MDA-MB-468 cells assessed as cell viability at 1 uM after 48 hrs in presence of 1 uM gefitinib by MTT assay relative to control; assay type: functional; details: MDA-MB-468, 48 h, read-out: Activity
[16] = system: MDA-MB-468; experiment: Cytotoxicity against gefitinib-resistant human MDA-MB-468 cells assessed as cell viability at 10 uM after 48 hrs in presence of 3 uM gefitinib by MTT assay relative to control; assay type: functional
[17] = system: MDA-MB-468; experiment: Cytotoxicity against gefitinib-resistant human MDA-MB-468 cells assessed as cell viability at 3 uM after 48 hrs in presence of 3 uM gefitinib by MTT assay relative to control; assay type: functional; details: MDA-MB-468, 48 h, read-out: Activity
[18] = system: MDA-MB-468; experiment: Cytotoxicity against gefitinib-resistant human MDA-MB-468 cells assessed as cell viability at 1 uM after 48 hrs in presence of 3 uM gefitinib by MTT assay relative to control; assay type: functional
[19] = Selectivity ratio of GI50 for human MCF7 cells to GI50 for gefitinib-resistant human MDA-MB-468 cells; assay type: functional
[20] = system: MDA-MB-468; experiment: Cytotoxicity against gefitinib-resistant human MDA-MB-468 cells assessed as cell viability at 3 uM after 48 hrs in presence of 1 uM gefitinib by MTT assay relative to control; assay type: functional
[21] = system: MCF7; experiment: Cytotoxicity against human MCF7 cells assessed as cell viability at 1 uM after 48 hrs by MTT assay relative to control; assay type: functional; details: MCF7, 48 h, read-out: Activity
[22] = system: MCF7; experiment: Cytotoxicity against human MCF7 cells assessed as cell viability at 3 uM after 48 hrs by MTT assay relative to control; assay type: functional; details: MCF7, 48 h, read-out: Activity

Compound: CNC(=O)[C@@H]1Cn2c(cc3ccccc32)C(=O)N1
- viability at 30 µM [1]: 82.6%
- viability at 30 µM [2]: 77.5%

Compound: COc1ccc(CNC(=O)[C@@H]2Cn3c(cc4ccccc43)C(=O)N2)cc1
- viability at 30 µM [1]: 74.7%
- viability at 30 µM [2]: 68.8%

Compound: O=C1N[C@H](C(=O)NC2CCCCC2)Cn2c1cc1ccccc12
- viability at 30 µM [1]: 73.1%
- viability at 30 µM [2]: 80.7%

Compound: O=C1N[C@H](C(=O)NCc2ccco2)Cn2c1cc1ccccc12
- viability at 30 µM [1]: 39.7%
- viability at 30 µM [2]: 62.1%
- GI50 [3]: 23.1 µM

Compound: Cc1ccc(CNC(=O)[C@@H]2Cn3c(cc4ccccc43)C(=O)N2Cc2ccccc2)o1
- viability at 10 µM [4]: 68.7%
- viability at 10 µM [5]: 63.1%

Compound: O=C(NCc1cccs1)[C@@H]1Cn2c(cc3ccccc32)C(=O)N1Cc1ccccc1
- RatioGI50 [6]: 4.5
- viability at 10 µM [4]: 35.8%
- viability at 10 µM [5]: 18.5%
- inhibition [7]: Active
- GI50 [8]: 4.6 µM
- GI50 [3]: 3.8 µM
- inhibition [9]: Active

Compound: CC(C)NC(=O)[C@@H]1Cn2c(cc3ccccc32)C(=O)N1
- viability at 30 µM [1]: 88.1%
- viability at 30 µM [2]: 84.4%

Compound: O=C1N[C@@H](C(=O)NCc2ccccc2)Cn2c1cc1ccccc12
- viability at 30 µM [1]: 45%
- viability at 30 µM [2]: 61.8%
- GI50 [3]: 24 µM

Compound: C=CCNC(=O)[C@@H]1Cn2c(cc3ccccc32)C(=O)N1
- viability at 30 µM [1]: 94.7%
- viability at 30 µM [2]: 104%

Compound: CCCNC(=O)[C@@H]1Cn2c(cc3ccccc32)C(=O)N1
- viability at 30 µM [1]: 88%
- viability at 30 µM [2]: 83.9%

Compound: O=C1N[C@H](C(=O)NCc2cccc(Cl)c2)Cn2c1cc1ccccc12
- viability at 30 µM [1]: 34.8%
- viability at 30 µM [2]: 61.7%
- GI50 [3]: 23.4 µM

Compound: O=C1N[C@H](C(=O)NCc2ccccc2)Cn2c1cc1ccccc12
- viability at 30 µM [1]: 48.8%
- viability at 30 µM [2]: 71.4%
- GI50 [3]: 28.9 µM

Compound: Cc1cccc(CNC(=O)[C@@H]2Cn3c(cc4ccccc43)C(=O)N2)c1
- viability at 30 µM [1]: 66.3%
- viability at 30 µM [2]: 78.1%

Compound: O=C(NCc1cccc(Cl)c1)[C@@H]1Cn2c(cc3ccccc32)C(=O)N1Cc1ccccc1
- viability at 10 µM [4]: 38.2%
- viability at 10 µM [5]: 46.7%
- GI50 [8]: 8.3 µM
- GI50 [3]: 9.5 µM

Compound: O=C1N[C@H](C(=O)O)Cn2c1cc1ccccc12
- viability at 30 µM [1]: 76.2%
- viability at 30 µM [2]: 99.7%

Compound: O=C1N[C@@H](C(=O)NCc2ccco2)Cn2c1cc1ccccc12
- viability at 30 µM [1]: 21.2%
- viability at 30 µM [2]: 82.5%
- GI50 [3]: 15.9 µM

Compound: COC(=O)[C@@H]1Cn2c(cc3ccccc32)C(=O)N1
- viability at 30 µM [1]: 102%
- viability at 30 µM [2]: 85.1%

Compound: O=C(NCc1ccco1)[C@@H]1Cn2c(cc3ccccc32)C(=O)N1Cc1ccccc1
- Activity [10]: 23.8%
- viability at 10 µM [11]: 15.6%
- Activity [12]: 40.8%
- viability at 10 µM [4]: 58.5%
- Activity [13]: 24.3%
- viability at 10 µM [5]: 23.3%
- Activity [14]: Active
- viability at 1 µM [15]: 66.3%
- Activity [16]: 19.6%
- inhibition [7]: Active
- GI50 [8]: 19.3 µM
- viability at 3 µM [17]: 34.3%
- GI50 [3]: 5.2 µM
- Activity [18]: 61%
- RatioGI50 [19]: 3.7
- Activity [20]: 40.5%
- inhibition [9]: Active
- viability at 1 µM [21]: 93.6%
- viability at 3 µM [22]: 62.5%
